In patent publication US10004701B2, “Methods and compositions for treating infection” (UNIVERSITY OF ROCHESTER, priority 2012, dated 2018):
Structures can show the parent of a compound that is named as a salt. Where two headings read alike, the source gives them in different places.

Key:
Test in all cases: AK assay 384-well format, Prestwick library screening
P. aeruginosa = type: cell-based, Pseudomonas aeruginosa; conditions: 50 μM final drug concentration; for fold induction at 50 µM: Pseudomonas aeruginosa, 3 h
K. pneumoniae = type: cell-based, Klebsiella pneumoniae; conditions: 50 μM final drug concentration; for fold induction at 50 µM: Klebsiella pneumoniae, 3 h
[1] = tested on: S. aureus strain USA300-0114; type: cell-based, Staphylococcus aureus; conditions: 50 μM final drug concentration; for fold induction at 50 µM: Staphylococcus aureus, USA300, 3 h
E. faecium = type: cell-based, Enterococcus faecium; conditions: 50 μM final drug concentration; for fold induction at 50 µM: Enterococcus faecium, 3 h
E. cloacae = type: cell-based, Enterobacter cloacae; conditions: 50 μM final drug concentration; for fold induction at 50 µM: Enterobacter cloacae, 3 h
E. coli = type: cell-based, Escherichia coli; conditions: 50 μM final drug concentration; for fold induction at 50 µM: Escherichia coli, 3 h
[2] = tested on: A. baumannii strain 98-37-09; type: cell-based, Acinetobacter baumannii; conditions: 50 μM final drug concentration; for fold induction at 50 µM: Acinetobacter baumannii, 983709, 3 h
[3] = cutoff for positive-scoring molecules 3-fold increase, read-out: AK-based Prestwick Library Screening Results, P. aeruginosa (fold increase in extracellular AK activity)
[4] = cutoff for positive-scoring molecules 3-fold increase, read-out: AK-based Prestwick Library Screening Results, K. pneumoniae (fold increase in extracellular AK activity)
[5] = cutoff for positive-scoring molecules 3-fold increase, read-out: AK-based Prestwick Library Screening Results, S. aureus (fold increase in extracellular AK activity)
[6] = cutoff for positive-scoring molecules 3-fold increase, read-out: AK-based Prestwick Library Screening Results, E. faecium (fold increase in extracellular AK activity)
[7] = cutoff for positive-scoring molecules 3-fold increase, read-out: AK-based Prestwick Library Screening Results, E. cloacae (fold increase in extracellular AK activity)
[8] = cutoff for positive-scoring molecules 3-fold increase, read-out: AK-based Prestwick Library Screening Results, E. coli (fold increase in extracellular AK activity)
[9] = cutoff for positive-scoring molecules 3-fold increase, read-out: AK-based Prestwick Library Screening Results, A. baumannii (fold increase in extracellular AK activity)
[10] = 384-well format, cutoff for positive-scoring molecules 3-fold increase, read-out: AK-based Prestwick Library Screening Results, P. aeruginosa (increase in extracellular AK activity)
[11] = 384-well format, cutoff for positive-scoring molecules 3-fold increase, read-out: AK-based Prestwick Library Screening Results, K. pneumoniae (increase in extracellular AK activity)
[12] = 384-well format, cutoff for positive-scoring molecules 3-fold increase, read-out: AK-based Prestwick Library Screening Results, S. aureus (increase in extracellular AK activity)
[13] = 384-well format, cutoff for positive-scoring molecules 3-fold increase, read-out: AK-based Prestwick Library Screening Results, E. faecium (increase in extracellular AK activity)
[14] = 384-well format, cutoff for positive-scoring molecules 3-fold increase, read-out: AK-based Prestwick Library Screening Results, E. cloacae (increase in extracellular AK activity)
[15] = 384-well format, cutoff for positive-scoring molecules 3-fold increase, read-out: AK-based Prestwick Library Screening Results, E. coli (increase in extracellular AK activity)
[16] = 384-well format, cutoff for positive-scoring molecules 3-fold increase, read-out: AK-based Prestwick Library Screening Results, A. baumannii (increase in extracellular AK activity)
[17] = planktonic, cutoff for positive-scoring molecules 3-fold increase
[18] = planktonic, cutoff for positive 3-fold increase
[19] = planktonic P. aeruginosa, positive cutoff 3-fold increase, read-out: AK-based Prestwick library screening result, P. aeruginosa (fold increase in extracellular AK activity)
[20] = planktonic K. pneumoniae, positive cutoff 3-fold increase, read-out: AK-based Prestwick library screening result, K. pneumoniae (fold increase in extracellular AK activity)
[21] = planktonic S. aureus, positive cutoff 3-fold increase, read-out: AK-based Prestwick library screening result, S. aureus (fold increase in extracellular AK activity)
[22] = planktonic E. faecium, positive cutoff 3-fold increase, read-out: AK-based Prestwick library screening result, E. faecium (fold increase in extracellular AK activity)
[23] = planktonic E. cloacae, positive cutoff 3-fold increase, read-out: AK-based Prestwick library screening result, E. cloacae (fold increase in extracellular AK activity)
[24] = planktonic E. coli, positive cutoff 3-fold increase, read-out: AK-based Prestwick library screening result, E. coli (fold increase in extracellular AK activity)
[25] = planktonic A. baumannii, positive cutoff 3-fold increase, read-out: AK-based Prestwick library screening result, A. baumannii (fold increase in extracellular AK activity)

`O=C(c1ccccc1)c1ccc2n1CCC2C(=O)O` (centres unmarked) [Ketorolac tromethamine] showed a fold induction at 50 µM (P. aeruginosa; [3]) of 1, a fold induction at 50 µM (K. pneumoniae; [4]) of 1 and a fold induction at 50 µM [1, 5] of 1.1. For the same molecule, the fold induction at 50 µM (E. faecium; [6]) was 1, the fold induction at 50 µM (E. cloacae; [7]) was 1.4 and the fold induction at 50 µM (E. coli; [8]) was 1.3. The fold induction at 50 µM [2, 9] was 1.
`CN1CCC(=C2c3ccccc3CC(=O)c3sccc32)CC1` [Ketotifen fumarate] gave a fold induction at 50 µM (P. aeruginosa; planktonic, cutoff for positive 3-fold increase, read-out: AK-based Prestwick Library Screening Results, P. aeruginosa (fold increase in extracellular AK activity)) of 1.1, a fold induction at 50 µM (K. pneumoniae; planktonic, cutoff for positive 3-fold increase, read-out: AK-based Prestwick Library Screening Results, K. pneumoniae (fold increase in extracellular AK activity)) of 0.9 and a fold induction at 50 µM ([1]; planktonic, cutoff for positive 3-fold increase, read-out: AK-based Prestwick Library Screening Results, S. aureus (fold increase in extracellular AK activity)) of 1.1. It also gave a fold induction at 50 µM (E. faecium; planktonic, cutoff for positive 3-fold increase, read-out: AK-based Prestwick Library Screening Results, E. faecium (fold increase in extracellular AK activity)) of 1, a fold induction at 50 µM (E. cloacae; planktonic, cutoff for positive 3-fold increase, read-out: AK-based Prestwick Library Screening Results, E. cloacae (fold increase in extracellular AK activity)) of 1.7 and a fold induction at 50 µM (E. coli; planktonic, cutoff for positive 3-fold increase, read-out: AK-based Prestwick Library Screening Results, E. coli (fold increase in extracellular AK activity)) of 1.3. The fold induction at 50 µM ([2]; planktonic, cutoff for positive 3-fold increase, read-out: AK-based Prestwick Library Screening Results, A. baumannii (fold increase in extracellular AK activity)) was 1.1.
With `COc1c2occc2c(OC)c2c(=O)cc(C)oc12` [Khellin] the fold induction at 50 µM (P. aeruginosa; [10]) was 0.7, the fold induction at 50 µM (K. pneumoniae; [11]) was 0.6 and the fold induction at 50 µM [1, 12] was 0.7. It also gave a fold induction at 50 µM (E. faecium; [13]) of 0.9, a fold induction at 50 µM (E. cloacae; [14]) of 0.7 and a fold induction at 50 µM (E. coli; [15]) of 0.6. It also gave a fold induction at 50 µM [2, 16] of 0.7.
With `Cl.OC1CCCCC1N1CCC(c2ccccc2)CC1` (stereo not drawn) [L(−)-vesamicol hydrochloride] the “AK-based Prestwick Library Screening Results, P. aeruginosa (fold increase in extracellular AK activity)” value (P. aeruginosa; [17]) was 0.8, the “AK-based Prestwick Library Screening Results, K. pneumoniae (fold increase in extracellular AK activity)” value (K. pneumoniae; [17]) was 0.7 and the “AK-based Prestwick Library Screening Results, S. aureus (fold increase in extracellular AK activity)” value [1, 17] was 0.8. For the same molecule, the “AK-based Prestwick Library Screening Results, E. faecium (fold increase in extracellular AK activity)” value (E. faecium; [17]) was 0.9, the “AK-based Prestwick Library Screening Results, E. cloacae (fold increase in extracellular AK activity)” value (E. cloacae; [17]) was 1.2 and the “AK-based Prestwick Library Screening Results, E. coli (fold increase in extracellular AK activity)” value (E. coli; [17]) was 0.8. The “AK-based Prestwick Library Screening Results, A. baumannii (fold increase in extracellular AK activity)” value [2, 17] was 0.8.
`CC(CCc1ccccc1)NCC(O)c1ccc(O)c(C(N)=O)c1` (centres unmarked) [Labetalol hydrochloride] was tested, and the fold induction at 50 µM (P. aeruginosa; [10]) was 0.9, the fold induction at 50 µM (K. pneumoniae; [11]) was 0.7 and the fold induction at 50 µM [1, 12] was 0.8. For the same molecule, the fold induction at 50 µM (E. faecium; [13]) was 0.9, the fold induction at 50 µM (E. cloacae; [14]) was 1.3 and the fold induction at 50 µM (E. coli; [15]) was 0.9. For the same molecule, the fold induction at 50 µM [2, 16] was 0.9.
With `O=C(O)[C@H](O)[C@@H](O)[C@H](O[C@@H]1O[C@H](CO)[C@H](O)[C@H](O)[C@H]1O)[C@H](O)CO` [Lactobionic acid] the “AK-based Prestwick Library Screening Results, P. aeruginosa (fold increase in extracellular AK activity)” value (P. aeruginosa; [18]) was 1.0, the “AK-based Prestwick Library Screening Results, K. pneumoniae (fold increase in extracellular AK activity)” value (K. pneumoniae; [18]) was 0.9 and the “AK-based Prestwick Library Screening Results, S. aureus (fold increase in extracellular AK activity)” value [1, 18] was 0.8. For the same molecule, the “AK-based Prestwick Library Screening Results, E. faecium (fold increase in extracellular AK activity)” value (E. faecium; [18]) was 1.0, the “AK-based Prestwick Library Screening Results, E. cloacae (fold increase in extracellular AK activity)” value (E. cloacae; [18]) was 1.2 and the “AK-based Prestwick Library Screening Results, E. coli (fold increase in extracellular AK activity)” value (E. coli; [18]) was 1.0. For the same molecule, the “AK-based Prestwick Library Screening Results, A. baumannii (fold increase in extracellular AK activity)” value [2, 18] was 1.1.
In the case of `CC(=O)O[C@H]1C[C@H](O[C@H]2[C@@H](O)C[C@H](O[C@H]3[C@@H](O)C[C@H](O[C@H]4CC[C@@]5(C)[C@H](CC[C@@H]6[C@@H]5C[C@@H](O)[C@]5(C)[C@@H](C7=CC(=O)OC7)CC[C@]65O)C4)O[C@@H]3C)O[C@@H]2C)O[C@H](C)[C@H]1O[C@@H]1O[C@H](CO)[C@@H](O)[C@H](O)[C@H]1O` [Lanatoside C], the “AK-based Prestwick Library Screening Results, P. aeruginosa (fold increase in extracellular AK activity)” value (P. aeruginosa; planktonic, […]) is reported as 0.6, the “AK-based Prestwick Library Screening Results, K. pneumoniae (fold increase in extracellular AK activity)” value (K. pneumoniae; planktonic, […]) is reported as 0.6 and the “AK-based Prestwick Library Screening Results, S. aureus (fold increase in extracellular AK activity)” value ([1]; planktonic, […]) is reported as 0.7. For the same molecule, the “AK-based Prestwick Library Screening Results, E. faecium (fold increase in extracellular AK activity)” value (E. faecium; planktonic, […]) was 0.9, the “AK-based Prestwick Library Screening Results, E. cloacae (fold increase in extracellular AK activity)” value (E. cloacae; planktonic, […]) was 1.0 and the “AK-based Prestwick Library Screening Results, E. coli (fold increase in extracellular AK activity)” value (E. coli; planktonic, […]) was 0.6. The “AK-based Prestwick Library Screening Results, A. baumannii (fold increase in extracellular AK activity)” value ([2]; planktonic, […]) was 0.8.
Work on `Cc1c(OCC(F)(F)F)ccnc1C[S+]([O-])c1nc2ccccc2[nH]1` (centres unmarked) [Lansoprazole] yielded a fold induction at 50 µM (P. aeruginosa; [19]) of 0.7, a fold induction at 50 µM (K. pneumoniae; [20]) of 0.5 and a fold induction at 50 µM [1, 21] of 0.2. The fold induction at 50 µM (E. faecium; [22]) was 0.6, the fold induction at 50 µM (E. cloacae; [23]) was 1 and the fold induction at 50 µM (E. coli; [24]) was 0.6. For the same molecule, the fold induction at 50 µM [2, 25] was 0.6.
Molecule `CC[C@@H](C(=O)[C@@H](C)[C@@H](O)[C@H](C)CCc1ccc(C)c(O)c1C(=O)O)[C@H]1O[C@](CC)([C@H]2CC[C@](O)(CC)[C@H](C)O2)C[C@@H]1C` [Lasalocid sodium salt] has a fold induction at 50 µM (P. aeruginosa; planktonic, cutoff for positive-scoring molecules 3-fold increase, read-out: AK-based Prestwick Library Screening Results, P. aeruginosa (fold increase in extracellular AK activity)) of 0.7, a fold induction at 50 µM (K. pneumoniae; planktonic, cutoff for positive-scoring molecules 3-fold increase, read-out: AK-based Prestwick Library Screening Results, K. pneumoniae (fold increase in extracellular AK activity)) of 0.7 and a fold induction at 50 µM ([1]; planktonic, cutoff for positive-scoring molecules 3-fold increase, read-out: AK-based Prestwick Library Screening Results, S. aureus (fold increase in extracellular AK activity)) of 3.7. It also gave a fold induction at 50 µM (E. faecium; planktonic, cutoff for positive-scoring molecules 3-fold increase, read-out: AK-based Prestwick Library Screening Results, E. faecium (fold increase in extracellular AK activity)) of 0.9, a fold induction at 50 µM (E. cloacae; planktonic, cutoff for positive-scoring molecules 3-fold increase, read-out: AK-based Prestwick Library Screening Results, E. cloacae (fold increase in extracellular AK activity)) of 1 and a fold induction at 50 µM (E. coli; planktonic, cutoff for positive-scoring molecules 3-fold increase, read-out: AK-based Prestwick Library Screening Results, E. coli (fold increase in extracellular AK activity)) of 1. For the same molecule, the fold induction at 50 µM ([2]; planktonic, cutoff for positive-scoring molecules 3-fold increase, read-out: AK-based Prestwick Library Screening Results, A. baumannii (fold increase in extracellular AK activity)) was 2.6.
`Cc1oncc1C(=O)Nc1ccc(C(F)(F)F)cc1` [Leflunomide] gave a fold induction at 50 µM (P. aeruginosa; [3]) of 0.8, a fold induction at 50 µM (K. pneumoniae; [4]) of 0.6 and a fold induction at 50 µM [1, 5] of 0.6. For the same molecule, the fold induction at 50 µM (E. faecium; [6]) was 0.7, the fold induction at 50 µM (E. cloacae; [7]) was 1.5 and the fold induction at 50 µM (E. coli; [8]) was 0.8. For the same molecule, the fold induction at 50 µM [2, 9] was 0.8.
With `N#Cc1ccc(C(c2ccc(C#N)cc2)n2cncn2)cc1` [Letrozole] the fold induction at 50 µM (P. aeruginosa; [19]) was 1, the fold induction at 50 µM (K. pneumoniae; [20]) was 1.1 and the fold induction at 50 µM [1, 21] was 1.2. The fold induction at 50 µM (E. faecium; [22]) was 1, the fold induction at 50 µM (E. cloacae; [23]) was 1.4 and the fold induction at 50 µM (E. coli; [24]) was 1.2. It also gave a fold induction at 50 µM [2, 25] of 1.3.
